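GI50 = concentration required for 50% inhibition of growth. TGI is the concentration that stops growth completely.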
What was measured:
Assay in all cases: growth of human tumour cells (NCI), 384-well format
[1] = tested on: SF-539 CNS
[2] = tested on: TK-10 renal
[3] = tested on: HT29 colon
[4] = tested on: 786-0 renal
[5] = tested on: COLO 205 colon
[6] = tested on: SF-295 CNS
[7] = tested on: CCRF-CEM leukemia
[8] = tested on: MALME-3M melanoma
[9] = tested on: PC-3 prostate
[10] = tested on: NCI/ADR-RES ovarian
[11] = tested on: RXF 393 renal
[12] = tested on: ACHN renal
[13] = tested on: NCI-H226 lung
[14] = tested on: MOLT-4 leukemia
[15] = tested on: MCF7 breast
[16] = tested on: SK-OV-3 ovarian
[17] = tested on: OVCAR-3 ovarian
[18] = tested on: UACC-257 melanoma
[19] = tested on: OVCAR-8 ovarian
[20] = tested on: A549 NSCLC
[21] = tested on: KM12 colon
[22] = tested on: NCI-H322M lung
[23] = tested on: BT-549 breast
[24] = tested on: SNB-75 CNS
[25] = tested on: U251 glioblastoma
[26] = tested on: NCI-H23 lung
[27] = tested on: SN12C renal
[28] = tested on: SW-620 colon
[29] = tested on: K-562 leukemia
[30] = tested on: HOP-92 NSCLC
[31] = tested on: MDA-MB-435 melanoma
[32] = tested on: OVCAR-4 ovarian
[33] = tested on: HL-60(TB) leukemia
[34] = tested on: DU-145 prostate
[35] = tested on: OVCAR-5 ovarian
[36] = tested on: SF-268 CNS
[37] = tested on: EKVX NSCLC
[38] = tested on: SK-MEL-5 melanoma
[39] = tested on: SK-MEL-28 melanoma
[40] = tested on: HCT-116 colon
[41] = tested on: T-47D breast
[42] = tested on: NCI-H460 NSCLC
[43] = tested on: SNB-19 CNS
[44] = tested on: UACC-62 melanoma
[45] = tested on: UO-31 renal
[46] = tested on: MDA-MB-231 breast
[47] = tested on: HCT-15 colon
[48] = tested on: HCC-2998 colon
[49] = tested on: IGROV1 ovarian
[50] = tested on: HS 578T breast
[51] = tested on: M14 melanoma
[52] = tested on: CAKI-1 renal
[53] = tested on: RPMI-8226 leukemia
[54] = tested on: A498 renal
[55] = tested on: MDA-MB-468 breast
[56] = tested on: HOP-62 NSCLC
[57] = tested on: NCI-H522 lung
[58] = tested on: LOX IMVI melanoma
[59] = tested on: SK-MEL-2 melanoma

## CC(=O)N1CCN(CCOc2ccc(C3CCN(C4=Nn5c(nnc5C(F)(F)F)CC4)CC3)cc2)CC1
[1]
  GI50: 13500 nM
  TGI: > 100000 nM
[2]
  GI50: 20900 nM
  TGI: > 100000 nM
[3]
  GI50: 10400 nM
  TGI: > 100000 nM
[4]
  GI50: 8600 nM
  TGI: 69300 nM
[5]
  GI50: 15200 nM
  TGI: > 100000 nM
[6]
  GI50: 23600 nM
  TGI: > 100000 nM
[7]
  GI50: 4060 nM
  TGI: 19300 nM
[8]
  GI50: 11600 nM
  TGI: 75200 nM
[9]
  GI50: 9080 nM
  TGI: > 100000 nM
[10]
  GI50: 24100 nM
  TGI: 75600 nM
[11]
  GI50: 5970 nM
  TGI: 27500 nM
[12]
  GI50: 15300 nM
  TGI: 62800 nM
[13]
  GI50: 15000 nM
  TGI: > 100000 nM
[14]
  GI50: 4720 nM
  TGI: 21400 nM
[15]
  GI50: 3420 nM
  TGI: 83100 nM
[16]
  GI50: 6930 nM
  TGI: 31800 nM
[17]
  GI50: 7080 nM
  TGI: 35300 nM
[18]
  GI50: 4870 nM
  TGI: 26200 nM
[19]
  GI50: 12300 nM
  TGI: 60000 nM
[20]
  GI50: 14200 nM
  TGI: > 100000 nM
[21]
  GI50: 12000 nM
  TGI: > 100000 nM
[22]
  GI50: 13000 nM
  TGI: > 100000 nM
[23]
  GI50: 5940 nM
  TGI: 39800 nM
[24]
  GI50: 8080 nM
  TGI: 76500 nM
[25]
  GI50: 16500 nM
  TGI: 67300 nM
[26]
  GI50: 8080 nM
  TGI: > 100000 nM
[27]
  GI50: 22500 nM
  TGI: > 100000 nM
[28]
  GI50: > 100000 nM
  TGI: > 100000 nM
[29]
  GI50: 3660 nM
  TGI: > 100000 nM
[30]
  GI50: 14500 nM
  TGI: > 100000 nM
[31]
  GI50: 32800 nM
  TGI: > 100000 nM
[32]
  GI50: 11800 nM
  TGI: 71700 nM
[33]
  GI50: 3790 nM
  TGI: 14700 nM
[34]
  GI50: 32000 nM
  TGI: > 100000 nM
[35]
  GI50: 15100 nM
  TGI: > 100000 nM
[36]
  GI50: 2830 nM
  TGI: 12700 nM
[37]
  GI50: 16800 nM
  TGI: > 100000 nM
[38]
  GI50: 4830 nM
  TGI: 19700 nM
[39]
  GI50: 24200 nM
  TGI: > 100000 nM
[40]
  GI50: 13400 nM
  TGI: > 100000 nM
[41]
  GI50: 1160 nM
  TGI: 7990 nM
[42]
  GI50: 13300 nM
  TGI: 36600 nM
[43]
  GI50: 17900 nM
  TGI: 83400 nM
[44]
  GI50: 4270 nM
  TGI: 88800 nM
[45]
  GI50: 22900 nM
  TGI: > 100000 nM
[46]
  GI50: 5580 nM
  TGI: > 100000 nM
[47]
  GI50: 18100 nM
  TGI: > 100000 nM
[48]
  GI50: 6170 nM
  TGI: 24200 nM
[49]
  GI50: 6070 nM
  TGI: 54100 nM
[50]
  GI50: 4780 nM
  TGI: 31200 nM
[51]
  GI50: 10900 nM
  TGI: > 100000 nM
[52]
  GI50: 3530 nM
  TGI: > 100000 nM
[53]
  GI50: 3340 nM
  TGI: 13400 nM
[54]
  GI50: 14700 nM
  TGI: 77200 nM
[55]
  GI50: 1720 nM
  TGI: 10000 nM
[56]
  GI50: 4710 nM
  TGI: 25900 nM
[57]
  GI50: 2900 nM
  TGI: 20100 nM
[58]
  GI50: 3750 nM
  TGI: 17900 nM

## CC(=O)C1(O)Cc2c(O)c3c(c(O)c2C(OC2CC(N)C(O)C(C)O2)C1)C(=O)c1ccccc1C3=O (stereo unspecified)
[1]
  GI50: 13.5 nM
  TGI: 75.5 nM
[3]
  GI50: 27.7 nM
  TGI: 106 nM
[4]
  GI50: 23.4 nM
  TGI: 112 nM
[6]
  GI50: 19 nM
  TGI: 51.7 nM
[7]
  TGI: 15.6 nM
[8]
  GI50: 54.6 nM
  TGI: 191 nM
[9]
  GI50: 60.5 nM
  TGI: 214 nM
[10]
  GI50: 480 nM
  TGI: 2000 nM
[11]
  GI50: 53.9 nM
  TGI: 197 nM
[12]
  GI50: 21.3 nM
  TGI: 89.6 nM
[13]
  GI50: 25.7 nM
  TGI: 128 nM
[15]
  GI50: 24.1 nM
  TGI: 225 nM
[16]
  GI50: 27.7 nM
  TGI: 138 nM
[17]
  GI50: 65.3 nM
  TGI: 257 nM
[59]
  GI50: 51.9 nM
  TGI: 93.2 nM
[18]
  GI50: 138 nM
  TGI: 296 nM
[19]
  GI50: 31.6 nM
  TGI: 145 nM
[20]
  GI50: 13.8 nM
  TGI: 133 nM
[21]
  GI50: 11.5 nM
  TGI: 36.3 nM
[22]
  GI50: 190 nM
  TGI: 572 nM
[23]
  GI50: 20.1 nM
  TGI: 94.4 nM
[24]
  GI50: 33.4 nM
  TGI: 144 nM
[25]
  GI50: 20.3 nM
  TGI: 105 nM
[26]
  GI50: 23.2 nM
  TGI: 90.1 nM
[27]
  GI50: 15.7 nM
  TGI: 59.7 nM
[28]
  GI50: 13.2 nM
  TGI: 178 nM
[29]
  GI50: 15 nM
  TGI: 116 nM
[30]
  GI50: 35.1 nM
  TGI: 265 nM
[31]
  GI50: 78.6 nM
  TGI: 230 nM
[32]
  GI50: 178 nM
  TGI: 482 nM
[34]
  GI50: 11.3 nM
  TGI: 136 nM
[35]
  GI50: 44.7 nM
  TGI: 242 nM
[36]
  GI50: 24.9 nM
  TGI: 126 nM
[37]
  GI50: 150 nM
  TGI: 973 nM
[39]
  GI50: 93.8 nM
  TGI: 379 nM
[40]
  GI50: 14.6 nM
  TGI: 153 nM
[41]
  GI50: 42.1 nM
  TGI: 296 nM
[44]
  GI50: 18 nM
  TGI: 123 nM
[45]
  GI50: 76 nM
  TGI: 209 nM
[46]
  GI50: 19.4 nM
  TGI: 106 nM
[47]
  GI50: 17.8 nM
  TGI: 103 nM
[49]
  GI50: 125 nM
  TGI: 412 nM
[50]
  GI50: 11.8 nM
  TGI: 129 nM
[51]
  GI50: 17.5 nM
  TGI: 114 nM
[52]
  GI50: 30.9 nM
  TGI: 169 nM
[53]
  TGI: 19.1 nM
[54]
  GI50: 17.5 nM
  TGI: 146 nM
[55]
  GI50: 14.3 nM
  TGI: 34.3 nM
[56]
  GI50: 13.3 nM
  TGI: 34.6 nM
[57]
  GI50: 29.6 nM
  TGI: 162 nM
[58]
  GI50: 20.3 nM
  TGI: 139 nM
